Assay type in all cases: biochemical
For one assay, the target named is T1, MGLL (Mus musculus, UniProt O35678).
T1 construct: Brain; from tissue; host or cells: mouse brain proteome
T1 sequence (O35678 1-303): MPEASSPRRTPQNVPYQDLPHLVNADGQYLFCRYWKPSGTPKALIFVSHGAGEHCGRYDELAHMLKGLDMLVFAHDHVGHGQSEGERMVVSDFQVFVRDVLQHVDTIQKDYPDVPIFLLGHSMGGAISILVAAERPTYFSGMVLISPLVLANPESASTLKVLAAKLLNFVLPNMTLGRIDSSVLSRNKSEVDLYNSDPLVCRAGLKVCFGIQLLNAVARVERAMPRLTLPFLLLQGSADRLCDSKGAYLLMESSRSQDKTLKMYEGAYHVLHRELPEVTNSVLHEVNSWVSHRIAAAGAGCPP
The experiment in a line: In vitro competitive activity-based protein profiling, mouse brain proteome (MGLL). Conditions: concentration not given (μM).

The next assay deals with T2, MAGL (Homo sapiens, UniProt Q99685).
T2 construct: Proteomes (human prefrontal cortex or cell membrane fractions); from tissue
T2 sequence (Q99685 1-303): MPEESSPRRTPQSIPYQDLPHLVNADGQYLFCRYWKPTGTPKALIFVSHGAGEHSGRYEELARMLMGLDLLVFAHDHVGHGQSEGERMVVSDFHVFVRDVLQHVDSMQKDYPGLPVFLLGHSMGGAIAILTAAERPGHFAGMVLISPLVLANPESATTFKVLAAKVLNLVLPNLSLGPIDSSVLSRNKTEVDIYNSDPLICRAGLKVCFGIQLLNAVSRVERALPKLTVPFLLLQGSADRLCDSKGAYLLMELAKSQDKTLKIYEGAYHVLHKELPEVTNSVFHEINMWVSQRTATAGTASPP
The assay can be described thus: In vitro competitive activity-based protein profiling (FP-Rh or HT-01 probe, gel-based). Conditions: for % Inh MGLL PFC (Human, μM) / % Inh MGLL PC3 (Human, μM): concentration not given (μM). Also noted: IC50 MGLL PC3 (Human, μM) / IC50 MGLL PFC (Human, μM): scale not given here. The essentials: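 Human prefrontal cortex or cell membrane proteomes (1.0 mg/mL total protein) were preincubated with varying inhibitor concentrations for 30 min at 37° C. FP-Rh or HT-01 probe (50 μM DMSO stock) was then added for 30 min at room temperature, and samples were quenched in SDS loading buffer and resolved by SDS-PAGE.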

In the next assay the target is T3, ABHD6 (Mus musculus, UniProt Q8R2Y0).
T3 construct: Brain; from tissue; host or cells: mouse brain proteome
T3 sequence (Q8R2Y0 1-336): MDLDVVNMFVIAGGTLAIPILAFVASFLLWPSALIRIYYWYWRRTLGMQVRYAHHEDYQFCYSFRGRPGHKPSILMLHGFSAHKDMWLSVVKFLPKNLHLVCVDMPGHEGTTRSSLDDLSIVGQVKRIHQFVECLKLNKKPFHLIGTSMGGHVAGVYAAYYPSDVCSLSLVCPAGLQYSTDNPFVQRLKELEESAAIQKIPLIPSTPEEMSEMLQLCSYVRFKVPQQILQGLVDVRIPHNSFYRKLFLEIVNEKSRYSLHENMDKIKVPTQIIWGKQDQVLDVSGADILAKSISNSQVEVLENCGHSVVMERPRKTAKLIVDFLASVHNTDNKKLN
The experiment in a line: In vitro competitive activity-based protein profiling, mouse brain proteome (ABHD6). As to conditions: mouse brain proteome; concentration not given (μM). On the procedure: [The source words this procedure for another target and reports this target under the same test.] In Vitro Competitive Activity-Based Protein Profiling.
Proteomes (human prefrontal cortex or cell membrane fractions) (50 μL, 1.0 mg/mL total protein concentration) were preincubated with varying concentrations of inhibitors at 37° C. After 30 min, FP-Rh or HT-01 (1.0 μL, 50 μM in DMSO) was added and the mixture was incubated for another 30 min at room temperature. Reactions were quenched with SDS loading buffer (15 μL-4×) and run on SDS-PAGE.

[1] abbreviates: prefrontal cortex (PFC) proteome.

Turning to `CN(Cc1ccc(C(F)(F)F)cc1N1CCC(C(=O)O)CC1)C1(C)CCN(C(=O)OC(C(F)(F)F)C(F)(F)F)CC1` [Example 14, 1-(2-(((1-(((1,1,1,3,3,3-Hexafluoropropan-2-yl)oxy)carbonyl)-4-methylpiperidin-4-yl)(methyl)amino)methyl)-5-(trifluoromethyl)phenyl)piperidine-4-carboxylic acid], the “% Inh MGLL Brain (Mouse, μM)” value at MGLL is on record as “### (### is ≥75%)”. Moreover, at MAGL (PC3 cell proteome), the “IC50 MGLL PC3 (Human, μM)” value is “* * *”. In addition, the “% Inh MGLL PFC (Human, μM)” value at MAGL (setting [1]) was “### (### is ≥75%)”. Also, at ABHD6, the “% Inh ABHD6 Brain (Mouse, μM)” value is “### (### is ≥75%)”.
With `CC1(C(=O)O)CCCN(c2cc(CN3CC4(CCN(C(=O)OC(C(F)(F)F)C(F)(F)F)CC4)C3)cc(C(F)(F)F)c2)C1` (stereo not drawn) [Example 114, l-(3-((7-(((1,1,1,3,3,3-Hexafluoropropan-2-yl)oxy)carbonyl)-2,7-diazaspiro[3,5]nonan-2-yl)methyl)-5-(trifluoromethyl)phenyl)-3-methylpiperidine-3-carboxylic acid], the “% Inh MGLL Brain (Mouse, μM)” value at MGLL is “### (### is ≥75%)”. Besides, the “% Inh MGLL PFC (Human, μM)” value on MAGL (setting [1]) is on record as “### (### is ≥75%)”. Moreover, at ABHD6, the “% Inh ABHD6 Brain (Mouse, μM)” value is “# (# is ≤25%)”.
For `CC1(OCc2cc(N3CCC(C(=O)O)CC3)cc(C(F)(F)F)c2)CCN(C(=O)OC(C(F)(F)F)C(F)(F)F)CC1` [Example 227, l-(3-(((1-(((1,1,1,3,3,3-Hexafluoropropan-2-yl)oxy)carbonyl)-4-melhylpiperidin-4-yl)oxy)methyl)-5-(trifluoromethyl)phenyl) piperidine-4-carboxylic acid], on MGLL, the “% Inh MGLL Brain (Mouse, μM)” value was “### (### is ≥75%)”. On MAGL (setting [1]), the “% Inh MGLL PFC (Human, μM)” value is “### (### is ≥75%)”. For the same compound, the “% Inh ABHD6 Brain (Mouse, μM)” value on ABHD6 is “## (## is between 25 and 75%)”.
With `O=C(O)[C@@H]1CCCN(c2cc(CN3CC4(CCN(C(=O)OC(C(F)(F)F)C(F)(F)F)CC4)C3)cc(C(F)(F)F)c2)C1` [Example 105, (R)-1-(3-((7-(((1,1,1,3,3,3-Hexafluoropropan-2-yl)oxy)carbonyl)-2,7-diazaspiro[3,5]nonan-2-yl)methyl)-5-(trifluoromethyl)phenyl) piperidine-3-carboxylic acid], the “% Inh MGLL Brain (Mouse, μM)” value at MGLL is “### (### is ≥75%)”. Also, on MAGL (setting [1]), the “% Inh MGLL PFC (Human, μM)” value is on record as “### (### is ≥75%)”. For the same compound, on ABHD6, the “% Inh ABHD6 Brain (Mouse, μM)” value is recorded as “### (### is ≥75%)”.
As to `CN(Cc1cc(N2CCOC(C)(C(=O)O)C2)cc(C(F)(F)F)c1)C1(C)CCN(C(=O)OC(C(F)(F)F)C(F)(F)F)CC1` (centres unmarked) [Example 139, 4-(3-(((1-(((1,1,1,3,3,3-Hexafluoropropan-2-yl)oxy)carbonyl)-4-methylpiperidin-4-yl)(methyl)amino)methyl)-5-(trifluoromethyl)phenyl)-2-methylmorpholine-2-carboxylic acid], the “% Inh MGLL Brain (Mouse, μM)” value at MGLL is on record as “### (### is ≥75%)”. On MAGL (setting [1]), the “% Inh MGLL PFC (Human, μM)” value is “### (### is ≥75%)”. Besides, the “% Inh ABHD6 Brain (Mouse, μM)” value at ABHD6 is “## (## is between 25 and 75%)”.
As to `O=C(O)C1CCN(c2cc(S(F)(F)(F)(F)F)ccc2CN2CCC3(CC2)CCN(C(=O)OC(C(F)(F)F)C(F)(F)F)C3)CC1` [Example 222, l-(2-((2-(((1,1,1,3,3,3-Hexafluoropropan-2-yl)oxy)carbonyl)-2,8-diazaspiro[4.5]decan-8-yl)methyl)-5-(pentafluoro-16-sulfaneyl)phenyl)piperidine-4-carboxylic acid], the “% Inh MGLL Brain (Mouse, μM)” value on MGLL is “### (### is ≥75%)”. Moreover, the “% Inh MGLL PFC (Human, μM)” value on MAGL (setting [1]) was “### (### is ≥75%)”. The “% Inh ABHD6 Brain (Mouse, μM)” value at ABHD6 was “## (## is between 25 and 75%)”.
`O=C(O)C1CCCCN1c1cc(CN2CC3(CCN(C(=O)OC(C(F)(F)F)C(F)(F)F)CC3)C2)cc(C(F)(F)F)c1` (stereo not drawn) [Example 120, l-(3-((7-(((1,1,1,3,3,3-Hexafluoropropan-2-yl)oxy)carbonyl)-2,7-diazaspiro[3,5]nonan-2-yl)methyl)-5-(trifluoromethyl)phenvl)piperidine-2-carboxylic acid]: the “% Inh MGLL Brain (Mouse, μM)” value on MGLL is “### (### is ≥75%)”. The “% Inh MGLL PFC (Human, μM)” value at MAGL (setting [1]) is reported as “### (### is ≥75%)”. Also, the “% Inh ABHD6 Brain (Mouse, μM)” value at ABHD6 is on record as “### (### is ≥75%)”.
One may read the IC50 as the concentration that gives 50% inhibition. Regarding `O=C(O)C1CCCN1C1CCN(c2cc(C(F)(F)F)ccc2CN2CCCC23CCN(C(=O)OC(C(F)(F)F)C(F)(F)F)CC3)CC1` (centres unmarked) [Example 159], on MGLL, the “% Inh MGLL Brain (Mouse, μM)” value is “### (### is ≥75%)”. In addition, the “% Inh MGLL PC3 (Human, μM)” value at MAGL (PC3 cell proteome) is reported as “### (### is ≥75%)”. Moreover, the half-inhibitory concentration (IC50) at MAGL (prefrontal cortex (PFC) proteome, read-out: IC50 MGLL PFC (Human)) is under 100 nM. For the same compound, the “% Inh ABHD6 Brain (Mouse, μM)” value on ABHD6 is “# (# is ≤25%)”.
As for `O=C(O)C1CCN(c2cc(CN3CC4(CCN(C(=O)OC(C(F)(F)F)C(F)(F)F)CC4)C3)cc(C(F)(F)F)c2)C1` (stereo not drawn) [Example 104, l-(3-((7-(((1,1,1,3,3,3-Hexailuoropropan-2-yl)oxy)carbonyl)-2,7-diazaspiro[3.5]nonan-2-yl)methyl)-5-(trifluoromethyl)phenyl) pyrrolidine-3-carboxylic acid], on MGLL, the “% Inh MGLL Brain (Mouse, μM)” value is recorded as “### (### is ≥75%)”. For the same compound, on MAGL (setting [1]), the “% Inh MGLL PFC (Human, μM)” value is given as “### (### is ≥75%)”. Besides, the “% Inh ABHD6 Brain (Mouse, μM)” value at ABHD6 was “### (### is ≥75%)”.
Regarding `O=C(O)C1CCN(c2cc(F)cc(CN3CC4(CCN(C(=O)OC(C(F)(F)F)C(F)(F)F)CC4)C3)c2)CC1` [Example 117, 1-(3-Fluoro-5-((7-(((1,1,1,3,3,3-hexafluoropropan-2-yl)oxy)carbonyl)-2,7-diazaspiro[3.5]nonan-2-yl)methyl)phenyl)piperidine-4-carboxylic acid], at MGLL, the “% Inh MGLL Brain (Mouse, μM)” value was “### (### is ≥75%)”. Further, on MAGL (setting [1]), the “% Inh MGLL PFC (Human, μM)” value is listed as “### (### is ≥75%)”. Also, the “% Inh ABHD6 Brain (Mouse, μM)” value at ABHD6 was “## (## is between 25 and 75%)”.
As for `O=C(O)C1CCN(Cc2ccc(CN3CCC4(CC3)CCN(C(=O)OC(C(F)(F)F)C(F)(F)F)C4)cc2C(F)(F)F)CC1` [Example 225, l-(4-((2-(((1,1,1,3,3,3-Hexafluoropropan-2-yl)oxy)carbonyl)-2,8-diazaspiro[4.5]decan-8-yl)methyl)-2-(trifluoromethyl)benzyl) piperidine-4-carboxylic acid], the “% Inh MGLL Brain (Mouse, μM)” value on MGLL was “# (# is ≤25%)”. Also, at MAGL (setting [1]), the “% Inh MGLL PFC (Human, μM)” value is “## (## is between 25 and 75%)”. For the same compound, the “% Inh ABHD6 Brain (Mouse, μM)” value on ABHD6 is “## (## is between 25 and 75%)”.
For the compound `O=C(O)C1CN(c2cc(CN3CC4(CCN(C(=O)OC(C(F)(F)F)C(F)(F)F)CC4)C3)cc(C(F)(F)F)c2)CCO1` (centres unmarked) [Example 100, 4-(3-((7-(((1,1,1,3,3,3-Hexafluoropropan-2-yl)oxy)carbonyl)-2,7-diazaspiro[3,5]nonan-2-yl)methyl)-5-(trifluoromethyl)phenyl)morph-oline-2-carboxylic acid], the “% Inh MGLL Brain (Mouse, μM)” value at MGLL is on record as “### (### is ≥75%)”. Moreover, the “% Inh MGLL PFC (Human, μM)” value at MAGL (setting [1]) is on record as “### (### is ≥75%)”. For the same compound, the “% Inh ABHD6 Brain (Mouse, μM)” value on ABHD6 is “### (### is ≥75%)”.
As for `O=C(O)C1CCN(c2cc(CN3CCC4(CC3)CCN(C(=O)OC(C(F)(F)F)C(F)(F)F)C4)ccc2C(F)(F)F)CC1` [Example 221, 1-(5-((2-(((1,1,1,3,3,3-Hexafluoropropan-2-yl)oxy)carbonyl)-2.8-diazaspiro[4.5]decan-8-yl)methyl)-2-(trifluoromethyl)phenyl) piperidine-4-carboxylic acid], at MGLL, the “% Inh MGLL Brain (Mouse, μM)” value is on record as “### (### is ≥75%)”. The “% Inh MGLL PFC (Human, μM)” value on MAGL (setting [1]) is “### (### is ≥75%)”. Also, the “% Inh ABHD6 Brain (Mouse, μM)” value at ABHD6 is on record as “### (### is ≥75%)”.
For the compound `CN(Cc1ccc(F)cc1C1(C(=O)O)CCCC1)C1(C)CCN(C(=O)OC(C(F)(F)F)C(F)(F)F)CC1` [Example 143, 1-(5-Fluoro-2-{[(1-{[(1,1,1,3,3,3-hexafluoropropan-2-yl)oxy]carbonyl}-4-methylpiperidin-4-yl)(methyl)amino]methyl}phenyl)cyclopentane-1-carboxylic acid], on MGLL, the “% Inh MGLL Brain (Mouse, μM)” value is “### (### is ≥75%)”. Also, the “% Inh MGLL PC3 (Human, μM)” value at MAGL (PC3 cell proteome) was “### (### is ≥75%)”. Besides, at ABHD6, the “% Inh ABHD6 Brain (Mouse, μM)” value was “# (# is ≤25%)”.

The values are drawn from US11161856B2 (H. Lundbeck A/S, priority 2017, dated 2021).
